Experimental data from PMC9862096, “Interaction of a Homologous Series of Amphiphiles with P-glycoprotein in a Membrane Environment—Contributions of Polar and Non-Polar Interactions” (Pharmaceutics, 2023).
Where two headings read alike, the source gives them in different places.

Tests used:
mouse P–gp (mP–gp) [1] = target: T1, mouse P–gp (mP–gp) (Mus musculus, UniProt P21447); experiment: P–gp ATPase activity (vanadate-sensitive, end point Pi release) in native membranes; type: biochemical; conditions: for Emax: read-out: V1, maximum activation; for Effect on P–gp ATPase activity: native membranes, Figure 1
T1 construct: made in house; host or cells: High-Five insect cells (Invitrogen), recombinant baculovirus; total membrane vesicles
Experimental: High-Five insect cells (Invitrogen) were infected with recombinant baculovirus carrying mouse P–gp (mP–gp) gene (Abcb1a). Membrane vesicles were prepared by hypotonic lysis of the insect cells, followed by ultracentrifugation to collect the membrane vesicles, as described in detail in reference. The native membranes obtained were suspended in storage buffer (45 mM Tris-HCl pH 7.5, 45 mM D-mannitol, 1.8 mM EGTA, 0.45% v/v aprotinin, 1.8 mM DTT, 0.9 mM AEBSF, and 10% v/v glycerol), aliquoted, and stored at −80 °C or in liquid nitrogen until use. The concentration of protein in the native membranes was quantified by the Sherman and Weismann method using Amido Black B dye.
The ATPase activity of P–gp in the High-Five insect cell membranes was measured by the end point Pi release assays, as described earlier with minor modifications. Native membranes were diluted in ATPase assay buffer (final concentrations: 41.2 mM Tris-MES pH = 6.8, 50 mM KCl, 5 mM NaN3, 2 mM EGTA, 1.03 mM Ouabain, 2 mM DTT, and 10 mM MgCl2), and the modulators were added from stocks in DMSO (final DMSO 1% v/v). The final concentration of protein was quantified, being ca. 0.1 mg/mL. Four samples were prepared at each modulator concentration, containing ATP at 5 mM, two of which also contained vanadate at 0.3 mM. P–gp specific activity was measured as vanadate-sensitive ATPase activity. The basal rate of ATP hydrolysis was 67 ± 4 nmol Pi mgP^−1 min^−1, with 37 ± 4 nmol Pi mgP^−1 min^−1 being sensitive to vanadate. The results obtained for the effect of the modulators on the ATPase activity in the presence and absence of vanadate are shown in the Supplementary Information (Figure S1).
The results were then analyzed with the formalism derived in this manuscript considering the distribution of the modulator in the distinct environments (aqueous phase, lipid bilayer and P-gp) and several equal and independent binding sites in P-gp’s binding pocket, Equations (3)–(9). The best fit was obtained with nonlinear least-square analysis using Microsoft Excel.
For the correct analysis of the results, the distribution of the amphiphiles in the distinct environments (aqueous media, lipid bilayer, and P–gp) must be considered. In addition, excess ligand should not be assumed. When considering that P–gp has several binding sites, the kinetic scheme that describes P–gp saturation with ligand is given by Equation (5). For details, see, e.g., references. (5) LW↔KPW→LbLLb LLb=KPW→LbLW VLb/VWLW+P↔β1PL1 PL1=β1PLWi LW+P↔βiPLi PLi=βiPLW^i n LW+P↔βnPLn PLn=βnPLW^n
The overall ATPase activity at each ligand concentration is calculated from the concentration of each protein species PLi and the corresponding ATPase activity Vi , (9) V=V0+∑i=1nPLi Vi
This formalism was used to describe the effect of the NBD amphiphiles on P–gp’s ATPase activity, considering a distinct ATPase activity for P–gp with a different number of amphiphile molecules in the binding pocket.

mouse P–gp (mP–gp) [2] = target: T1, mouse P–gp (mP–gp); experiment: as above; type: biochemical; conditions: Equation (S1), total modulator concentration; only activation for NBD–C4; constraint K1≤K2 for NBD–C8 and NBD–LysoMPE; [75% confidence interval]; read-out: K1, dissociation constant for P–gp activation
[3] = cited from earlier work; for critical aggregation concentration (CAC): 25 °C, aqueous; for increase of CAC in the presence of co-solvent: e.g. 1 M trehalose
[4] = Equation (9), local concentrations, n = 1 binding sites, read-out: Kd, microscopic dissociation constant
[5] = Equation (9), local concentrations, n = 2 binding sites, read-out: Kd, microscopic dissociation constant
[6] = Equation (9), local concentrations, n = 3 binding sites, read-out: Kd, microscopic dissociation constant
[7] = Equation (9), local concentrations, n = 4 binding sites, read-out: Kd, microscopic dissociation constant
[8] = Equation (9), local concentrations, n = 5 binding sites, read-out: Kd, microscopic dissociation constant
[9] = Equation (9), n = 3, read-out: β1, macroscopic binding constant of the first ligand (converted)
[10] = Equation (9), n = 4, read-out: β1, macroscopic binding constant of the first ligand (converted)
[11] = Equation (9), n = 5, read-out: β1, macroscopic binding constant of the first ligand (converted)
[12] = Equation (S1), total modulator concentration, no constraint between K1 and K2, [75% confidence interval], read-out: K1, dissociation constant for P–gp activation
[13] = Equation (S1), total modulator concentration, no constraint between K1 and K2, [75% confidence interval], read-out: K2, dissociation constant for P–gp inhibition
[14] = Equation (S1), constraint K1≤K2 for NBD–C8
[15] = Equation (S1), no constraint between K1 and K2, [75% confidence interval]
[16] = Equation (S1), only activation for NBD–C4, constraint K1≤K2 for NBD–C8 and NBD–LysoMPE, [75% confidence interval]
[17] = Equation (S1), total modulator concentration, constraint K1≤K2 for NBD–C8 and NBD–LysoMPE, [75% confidence interval], read-out: K2, dissociation constant for P–gp inhibition
[18] = Equation (S1), no constraint between K1 and K2, [75% confidence interval], listed as NBD-C8

T1 sequence (P21447 whole entry): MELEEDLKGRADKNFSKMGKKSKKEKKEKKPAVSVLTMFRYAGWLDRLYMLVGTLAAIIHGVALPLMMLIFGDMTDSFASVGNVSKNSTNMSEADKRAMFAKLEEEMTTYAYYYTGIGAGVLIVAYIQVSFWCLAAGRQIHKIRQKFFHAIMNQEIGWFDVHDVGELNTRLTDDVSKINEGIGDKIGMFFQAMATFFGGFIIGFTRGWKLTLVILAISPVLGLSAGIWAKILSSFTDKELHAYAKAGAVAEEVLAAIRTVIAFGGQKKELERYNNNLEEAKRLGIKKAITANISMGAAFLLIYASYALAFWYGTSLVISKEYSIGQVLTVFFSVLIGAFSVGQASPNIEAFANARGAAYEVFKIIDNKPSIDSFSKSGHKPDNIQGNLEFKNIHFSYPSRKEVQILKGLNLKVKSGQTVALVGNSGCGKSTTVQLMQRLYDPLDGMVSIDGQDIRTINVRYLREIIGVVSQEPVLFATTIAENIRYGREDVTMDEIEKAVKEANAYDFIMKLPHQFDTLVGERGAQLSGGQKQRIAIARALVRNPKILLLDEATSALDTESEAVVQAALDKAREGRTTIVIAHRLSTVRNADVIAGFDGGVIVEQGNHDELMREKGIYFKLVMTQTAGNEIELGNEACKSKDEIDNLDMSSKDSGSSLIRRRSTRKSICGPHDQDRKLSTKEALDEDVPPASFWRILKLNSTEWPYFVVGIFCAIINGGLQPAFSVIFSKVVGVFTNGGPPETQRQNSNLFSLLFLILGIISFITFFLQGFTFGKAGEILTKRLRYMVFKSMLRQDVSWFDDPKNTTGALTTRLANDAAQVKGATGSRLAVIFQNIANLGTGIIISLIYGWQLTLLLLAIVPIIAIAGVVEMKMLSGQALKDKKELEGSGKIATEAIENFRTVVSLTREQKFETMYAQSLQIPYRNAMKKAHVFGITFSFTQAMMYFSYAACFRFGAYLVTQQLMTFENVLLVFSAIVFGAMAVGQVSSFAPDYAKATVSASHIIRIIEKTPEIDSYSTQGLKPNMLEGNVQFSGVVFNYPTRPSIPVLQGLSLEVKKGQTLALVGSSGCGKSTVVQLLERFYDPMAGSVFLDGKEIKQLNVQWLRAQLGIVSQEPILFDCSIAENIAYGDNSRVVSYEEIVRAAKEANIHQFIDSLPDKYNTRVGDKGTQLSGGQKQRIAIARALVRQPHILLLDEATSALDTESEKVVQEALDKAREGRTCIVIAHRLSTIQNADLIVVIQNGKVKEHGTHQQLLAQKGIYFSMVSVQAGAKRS

Structure (SMILES)	Kd (mouse P–gp (mP–gp) [1]; [4]) [µM]	Kd (mouse P–gp (mP–gp) [1]; [5]) [µM]	Kd (mouse P–gp (mP–gp) [1]; [6]) [µM]	Kd (mouse P–gp (mP–gp) [1]; [7]) [µM]	Kd (mouse P–gp (mP–gp) [1]; [8]) [µM]	V1, ATPase activity of P–gp with 1 amphiphile bound (mouse P–gp (mP–gp) [1]; Equation (9), n = 1) [%]	V1, ATPase activity of P–gp with 1 amphiphile bound (mouse P–gp (mP–gp) [1]; Equation (9), n = 2) [%]	V2, ATPase activity of P–gp with 2 amphiphiles bound (mouse P–gp (mP–gp) [1]; Equation (9), n = 2) [%]	V1, ATPase activity of P–gp with 1 amphiphile bound (mouse P–gp (mP–gp) [1]; Equation (9), n = 3) [%]	V2, ATPase activity of P–gp with 2 amphiphiles bound (mouse P–gp (mP–gp) [1]; Equation (9), n = 3) [%]	V3, ATPase activity of P–gp with 3 amphiphiles bound (mouse P–gp (mP–gp) [1]; Equation (9), n = 3) [%]	Kd (mouse P–gp (mP–gp) [1]; [9]) [µM]	V1, ATPase activity of P–gp with 1 amphiphile bound (mouse P–gp (mP–gp) [1]; Equation (9), n = 4) [%]	V2, ATPase activity of P–gp with 2 amphiphiles bound (mouse P–gp (mP–gp) [1]; Equation (9), n = 4) [%]	V3, ATPase activity of P–gp with 3 amphiphiles bound (mouse P–gp (mP–gp) [1]; Equation (9), n = 4) [%]	V4, ATPase activity of P–gp with 4 amphiphiles bound (mouse P–gp (mP–gp) [1]; Equation (9), n = 4) [%]	Kd (mouse P–gp (mP–gp) [1]; [10]) [µM]	V1, ATPase activity of P–gp with 1 amphiphile bound (mouse P–gp (mP–gp) [1]; Equation (9), n = 5) [%]	V2, ATPase activity of P–gp with 2 amphiphiles bound (mouse P–gp (mP–gp) [1]; Equation (9), n = 5) [%]	V3, ATPase activity of P–gp with 3 amphiphiles bound (mouse P–gp (mP–gp) [1]; Equation (9), n = 5) [%]	other results
CCCCCCCCCCCCCC(=O)OCC(O)COP(=O)(O)OCCNc1ccc([N+](=O)[O-])c2nonc12 (stereo not drawn) [NBD–LysoMPE]	20	6	3	3	3	0	122	0	99	146	0	1.09	100	100	129	0	0.714	100	100	116	V4, ATPase activity of P–gp with 4 amphiphiles bound (mouse P–gp (mP–gp) [1]; Equation (9), n = 5): 97%; V5, ATPase activity of P–gp with 5 amphiphiles bound (mouse P–gp (mP–gp) [1]; Equation (9), n = 5): 0%; Kd (mouse P–gp (mP–gp) [1]; [11]): 0.588 µM; Kd (mouse P–gp (mP–gp) [1]; [12]): > 5 µM; Kd (mouse P–gp (mP–gp) [1]; [13]): ≤ 15 µM; V2, residual activity at infinite modulator concentration (mouse P–gp (mP–gp) [1]; [14]): 0%; V1, maximal ATPase activation (mouse P–gp (mP–gp) [1]; Equation (S1), in any case (with or without constraints on K1, K2)): < 126%; V2, residual activity at infinite modulator concentration (mouse P–gp (mP–gp) [1]; [15]): 0%; Emax (mouse P–gp (mP–gp) [1]; [15]): 102%; Emax (mouse P–gp (mP–gp) [1]; [16]): 106%; Effect on P–gp ATPase activity (mouse P–gp (mP–gp) [1]): mostly inhibition; Kd (mouse P–gp (mP–gp) [2]): 13 µM; critical aggregation concentration (CAC) [3]: 4 µM
CCCCCCCCNc1ccc([N+](=O)[O-])c2nonc12 [NBD–C8]	3	11	4	4	6	286	388	0	112	403	65	1.28	113	260	317	62	1	122	275	253	Kd (mouse P–gp (mP–gp) [1]; Equation (9), n = 2, read-out: β1, macroscopic binding constant of the first ligand (converted)): 5.26 µM; V4, ATPase activity of P–gp with 4 amphiphiles bound (mouse P–gp (mP–gp) [1]; Equation (9), n = 5): 253%; V5, ATPase activity of P–gp with 5 amphiphiles bound (mouse P–gp (mP–gp) [1]; Equation (9), n = 5): 0%; Kd (mouse P–gp (mP–gp) [1]; [11]): 1.16 µM; Kd (mouse P–gp (mP–gp) [1]; [17]): 29 µM; Kd (mouse P–gp (mP–gp) [1]; [12]): 17 µM; Kd (mouse P–gp (mP–gp) [1]; [13]): 29 µM; V2, residual activity at infinite modulator concentration (mouse P–gp (mP–gp) [1]; [14]): 0%; V1, maximum activation (mouse P–gp (mP–gp) [1]; [18]): 494 [380, 3000] %; V2, residual activity at infinite modulator concentration (mouse P–gp (mP–gp) [1]; [18]): 0 [0, 103] %; V2, residual activity at infinite modulator concentration (mouse P–gp (mP–gp) [1]; Equation (S1), no constraint between K1 and K2, [75% confidence interval], listed as NBD‐C8): 0%; Emax (mouse P–gp (mP–gp) [1]; [15]): 497%; V1, maximum activation (mouse P–gp (mP–gp) [1]; [16]): 494 % of the basal ATPase activity; V1, maximum activation (mouse P–gp (mP–gp) [1]; Equation (S1), only activation for NBD–C4, constraint K1≤K2 for NBD–C8 and NBD–LysoMPE, [75% confidence interval], listed as NBD-C8): 494 [380, 598] % of the basal ATPase activity; Emax (mouse P–gp (mP–gp) [1]; [16]): 497%; Effect on P–gp ATPase activity (mouse P–gp (mP–gp) [1]): both activation and inhibition; Kd (mouse P–gp (mP–gp) [2]): 17 µM; critical aggregation concentration (CAC) [3]: 1 µM; increase of CAC in the presence of co-solvent [3]: 4 fold
CCCCNc1ccc([N+](=O)[O-])c2nonc12 [NBD–C4]	75	18	11	7	9	703	100	535	109	109	512	3.57	110	110	110	501	1.85	110	110	110	V4, ATPase activity of P–gp with 4 amphiphiles bound (mouse P–gp (mP–gp) [1]; Equation (9), n = 5): 259%; V5, ATPase activity of P–gp with 5 amphiphiles bound (mouse P–gp (mP–gp) [1]; Equation (9), n = 5): 491%; Kd (mouse P–gp (mP–gp) [1]; [11]): 1.82 µM; K2, dissociation constant for P–gp inhibition (mouse P–gp (mP–gp) [1]; Equation (S1), total modulator concentration, constraint K1≤K2 for NBD–C8 and NBD–LysoMPE, [75% confidence interval]): outside the concentration range studied; Kd (mouse P–gp (mP–gp) [1]; [17]): > 60 µM; Emax (mouse P–gp (mP–gp) [1]; [16]): 734%; Effect on P–gp ATPase activity (mouse P–gp (mP–gp) [1]): activation; Kd (mouse P–gp (mP–gp) [2]): 84 µM; critical aggregation concentration (CAC) [3]: 250 µM; increase of CAC in the presence of co-solvent [3]: not significantly affected
